Reference: patent US7704995B2 (Exelixis, Inc., priority 2003, dated 2010)
pIC50: −log10 of the molar value.

Biological target: T1, Chk1 (Homo sapiens, UniProt O14757)
T1 construct: purchased Upstate Biotechnology
T1 sequence (O14757 1-476): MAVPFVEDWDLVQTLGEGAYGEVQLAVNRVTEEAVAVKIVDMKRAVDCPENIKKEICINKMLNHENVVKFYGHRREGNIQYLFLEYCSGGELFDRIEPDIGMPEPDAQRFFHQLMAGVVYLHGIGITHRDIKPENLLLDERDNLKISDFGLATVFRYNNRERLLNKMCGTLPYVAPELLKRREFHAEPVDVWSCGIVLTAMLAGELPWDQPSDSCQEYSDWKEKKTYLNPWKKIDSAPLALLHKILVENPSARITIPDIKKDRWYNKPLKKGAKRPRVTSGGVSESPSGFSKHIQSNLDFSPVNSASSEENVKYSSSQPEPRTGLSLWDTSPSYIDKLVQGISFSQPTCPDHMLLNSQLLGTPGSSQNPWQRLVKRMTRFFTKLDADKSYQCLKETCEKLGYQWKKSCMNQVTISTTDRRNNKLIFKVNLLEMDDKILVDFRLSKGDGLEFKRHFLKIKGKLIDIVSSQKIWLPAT
Assay: Chk1 kinase assay: incorporation of γ-33P ATP into immobilized myelin basic protein
Format: biochemical
Details: Table 11; Chk1 only; read-out: Chk1 IC50
Method in brief: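 Plates coated with MBP, then kinase reactions in Hepes pH 7.6 buffer with 10 mM MgCl2 and 1% DMSO were started by adding unlabeled plus γ-33P ATP (10 μM for Chk1 at 10 nM enzyme; 30 μM for Chk2 at 20 nM enzyme). After 1 h at room temperature, plates were washed and counted.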

| SMILES | pIC50 |
| --- | --- |
| C/C(=N\Nc1ccccn1)c1nc(-c2cccc(C(=O)NCc3ccccc3)c2)cnc1N [Example 632, 3-{5-amino-6-[(1E)-N-pyridin-2-ylethanehydrazonoyl]pyrazin-2-yl}-N-(phenylmethyl)benzamide] | ≤ 5.00 |
| C/C(=N\NC(=N)N)c1nc(-c2cccc(C(=O)NCc3ccccc3)c2)cnc1N [Example 633, 3-(5-amino-6-{(1E)-N-[amino(imino)methyl]ethanehydrazonoyl}pyrazin-2-yl)-N-(phenylmethyl)benzamide] | 5.00 to 6.00 |
| C/C(=N\Nc1ccc(OC(F)(F)F)cc1)c1nc(-c2cccc(C(=O)NCc3ccccc3)c2)cnc1N [Example 634, 3-[5-amino-6-((1E)-N-{4-[(trifluoromethyl)oxy]phenyl}ethanehydrazonoyl)pyrazin-2-yl]-N-(phenylmethyl)benzamide] | ≤ 5.00 |
| CC(=NNc1ccc([N+](=O)[O-])cc1)c1nc(-c2cccc(C(=O)NCc3ccccc3)c2)cnc1N [Example 635, 3-(5-Amino-6-{1-[(4-nitro-phenyl)-hydrazono]-ethyl}-pyrazin-2-yl)-N-benzyl-benzamide] | ≤ 5.00 |
| C/C(=N\Nc1nccc(C(F)(F)F)n1)c1nc(-c2cccc(C(=O)NCc3ccccc3)c2)cnc1N [Example 636, 3-(5-amino-6-{(1E)-N-[4-(trifluoromethyl)pyrimidin-2-yl]ethanehydrazonoyl}pyrazin-2-yl)-N-(phenylmethyl)benzamide] | 5.00 to 6.00 |
| C/C(=N\n1nnc2ccccc21)c1nc(-c2cccc(C(=O)NCc3ccccc3)c2)cnc1N [Example 637, 3-{5-amino-6-[(1E)-N-1H-1,2,3-benzotriazol-1-ylethanimidoyl]pyrazin-2-yl}-N-(phenylmethyl)benzamide] | ≤ 5.00 |
| CN/N=C(\C)c1nc(-c2cccc(C(=O)NCc3ccccc3)c2)cnc1N [Example 638, 3-{5-amino-6-[(1E)-N-methylethanehydrazonoyl]pyrazin-2-yl}-N-(phenylmethyl)benzamide] | ≤ 5.00 |
| Nc1ncc(-c2cccc(CN[C@H]3CCc4ccccc43)c2)nc1-c1nc(C2CCNCC2)n[nH]1 [Example 639, 5-(3-{[(1S)-2,3-dihydro-1H-inden-1-ylamino]methyl}phenyl)-3-(3-piperidin-4-yl-1H-1,2,4-triazol-5-yl)pyrazin-2-amine] | 6.00 to 7.30 |
| C/C(=N\Nc1ccc(C(F)(F)F)cc1)c1nc(-c2cccc(C(=O)NCc3ccccc3)c2)cnc1N [Example 640, 3-(5-amino-6-{(1E)-N-[4-(trifluoromethyl)phenyl]ethanehydrazonoyl}pyrazin-2-yl)-N-(phenylmethyl)benzamide] | ≤ 5.00 |
| C/C(=N\Nc1ccccc1)c1nc(-c2cccc(C(=O)NCc3ccccc3)c2)cnc1N [Example 641, 3-{5-amino-6-[(1E)-N-phenylethanehydrazonoyl]pyrazin-2-yl}-N-(phenylmethyl)benzamide] | 5.00 to 6.00 |
| C/C(=N\N1CCN(C)CC1)c1nc(-c2cccc(C(=O)NCc3ccccc3)c2)cnc1N [Example 642, 3-{5-amino-6-[(1E)-N-(4-methylpiperazin-1-yl)ethanimidoyl]pyrazin-2-yl}-N-(phenylmethyl)benzamide] | 6.00 to 7.30 |
| Nc1ncc(-c2cccc(CO)c2)nc1-c1nc(C2CCNC2)n[nH]1 (stereo not drawn) [Example 643, {3-[5-amino-6-(3-pyrrolidin-3-yl-1H-1,2,4-triazol-5-yl)pyrazin-2-yl]phenyl}methanol] | 6.00 to 7.30 |
| Nc1ncc(-c2cccc(C(=O)N[C@H]3CCc4ccccc43)c2)nc1C(=O)N[C@H]1CCNC1 [Example 644, 3-amino-6-(3-{[(1S)-2,3-dihydro-1H-inden-1-ylamino]carbonyl}phenyl)-N-[(3S)-pyrrolidin-3-yl]pyrazine-2-carboxamide] | > 7.30 |
| Nc1ncc(-c2cccc(C(=O)N[C@H]3CCc4ccccc43)c2)nc1C(=O)N[C@@H]1CCNC1 [Example 645, 3-amino-6-(3-{[(1S)-2,3-dihydro-1H-inden-1-ylamino]carbonyl}phenyl)-N-[(3R)-pyrrolidin-3-yl]pyrazine-2-carboxamide] | 6.00 to 7.30 |
| Nc1ncc(-c2cccc(C(=O)N[C@H]3CCc4ccccc43)c2)nc1C(=O)N[C@H]1CCN(C(=O)c2ccco2)C1 [Example 646, 3-amino-6-(3-{[(1S)-2,3-dihydro-1H-inden-1-ylamino]carbonyl}phenyl)-N-[(3S)-1-(furan-2-ylcarbonyl)pyrrolidin-3-yl]pyrazine-2-carboxamide] | 5.00 to 6.00 |
| CC(=O)NCCCNC(=O)c1nc(-c2cccc(C(=O)NCc3ccccc3)c2)cnc1N [Example 647, N-[3-(acetylamino)propyl]-3-amino-6-(3-{[(phenylmethyl)amino]carbonyl}phenyl)pyrazine-2-carboxamide] | 5.00 to 6.00 |
| Nc1ncc(-c2cccc(C(=O)NCc3ccccc3)c2)nc1C(=O)NCCCNC(=O)c1ccco1 [Example 648, 3-amino-N-{3-[(furan-2-ylcarbonyl)amino]propyl}-6-(3-{[(phenylmethyl)amino]carbonyl}phenyl)pyrazine-2-carboxamide] | 5.00 to 6.00 |
| Nc1ncc(-c2cccc(C(=O)N[C@H]3CCc4ccccc43)c2)nc1C(=O)N[C@H]1CCN(C(=O)c2ccncc2)C1 [Example 649, 3-amino-6-(3-{[(1S)-2,3-dihydro-1H-inden-1-ylamino]carbonyl}phenyl)-N-[(3S)-1-(pyridin-4-ylcarbonyl)pyrrolidin-3-yl]pyrazine-2-carboxamide] | ≤ 5.00 |
| Nc1ncc(-c2cccc(C(=O)NCc3ccccc3)c2)nc1C(=O)NCCCNC(=O)c1ccncc1 [Example 650, 3-amino-6-(3-{[(phenylmethyl)amino]carbonyl}phenyl)-N-{3-[(pyridin-4-ylcarbonyl)amino]propyl}pyrazine-2-carboxamide] | 5.00 to 6.00 |
| Nc1ncc(-c2cccc(C(=O)NCc3ccccc3)c2)nc1C(=O)NCCCNC(=O)c1cnc2ccccc2n1 [Example 651, N-[3-({[3-amino-6-(3-{[(phenylmethyl)amino]carbonyl}phenyl)pyrazin-2-yl]carbonyl}amino)propyl]quinoxaline-2-carboxamide] | ≤ 5.00 |
| Nc1ncc(-c2cccc(C(=O)NCc3ccccc3)c2)nc1C(=O)NCCCNC(=O)c1ccc(C(F)(F)F)nc1 [Example 652, 3-amino-6-(3-{[(phenylmethyl)amino]carbonyl}phenyl)-N-[3-({[6-(trifluoromethyl)pyridin-3-yl]carbonyl}amino)propyl]pyrazine-2-carboxamide] | ≤ 5.00 |
| Nc1ncc(-c2cccc(C(=O)NCc3ccccc3)c2)nc1C(=O)NCCCNS(=O)(=O)c1cccc2cccnc12 [Example 653, 3-amino-6-(3-{[(phenylmethyl)amino]carbonyl}phenyl)-N-{3-[(quinolin-8-ylsulfonyl)amino]propyl}pyrazine-2-carboxamide] | ≤ 5.00 |
| Nc1ncc(-c2cccc(C(=O)NCc3ccccc3)c2)nc1C(=O)NCCCNS(=O)(=O)c1ccccn1 [Example 654, 3-amino-6-(3-{[(phenylmethyl)amino]carbonyl}phenyl)-N-{3-[(pyridin-2-ylsulfonyl)amino]propyl}pyrazine-2-carboxamide] | 5.00 to 6.00 |
| Cc1noc(C)c1NC(=O)NCCCNC(=O)c1nc(-c2cccc(C(=O)NCc3ccccc3)c2)cnc1N [Example 655, 3-amino-N-[3-({[(3,5-dimethylisoxazol-4-yl)amino]carbonyl}amino)propyl]-6-(3-{[(phenylmethyl)amino]carbonyl}phenyl)pyrazine-2-carboxamide] | 5.00 to 6.00 |
| Cc1nccc(-c2nc(-c3cccc(C(=O)NCc4ccccc4)c3)cnc2N)n1 [Example 656, 3-[5-amino-6-(2-methylpyrimidin-4-yl)pyrazin-2-yl]-N-(phenylmethyl)benzamide] | 5.00 to 6.00 |
| CNc1nccc(-c2nc(-c3cccc(C(=O)NCc4ccccc4)c3)cnc2N)n1 [Example 657, 3-{5-amino-6-[2-(methylamino)pyrimidin-4-yl]pyrazin-2-yl}-N-(phenylmethyl)benzamide] | ≤ 5.00 |
| Nc1ncc(-c2cccc(C(=O)NCc3ccccc3)c2)nc1C(=O)NCCNC(=O)c1ccncc1 [Example 658, 3-amino-6-(3-{[(phenylmethyl)amino]carbonyl}phenyl)-N-{2-[(pyridin-4-ylcarbonyl)amino]ethyl}pyrazine-2-carboxamide] | 5.00 to 6.00 |
| Nc1ncc(-c2cccc(C(=O)NCc3ccccc3)c2)nc1C(=O)NCCNC(=O)c1ccco1 [Example 659, 3-amino-N-{2-[(furan-2-ylcarbonyl)amino]ethyl}-6-(3-{[(phenylmethyl)amino]carbonyl}phenyl)pyrazine-2-carboxamide] | ≤ 5.00 |
| Nc1ncc(-c2cccc(C(=O)NCc3ccccc3)c2)nc1C(=O)NC1CCCCC1NC(=O)c1nc(-c2cccc(C(=O)NCc3ccccc3)c2)cnc1N (stereo not drawn) [Example 660, N,N′-cyclohexane-1,2-diylbis[3-amino-6-(3-{[(phenylmethyl)amino]carbonyl}phenyl)pyrazine-2-carboxamide]] | ≤ 5.00 |
| CC(=O)NCCNC(=O)c1nc(-c2cccc(C(=O)NCc3ccccc3)c2)cnc1N [Example 661, N-[2-(acetylamino)ethyl]-3-amino-6-(3-{[(phenylmethyl)amino]carbonyl}phenyl)pyrazine-2-carboxamide] | 5.00 to 6.00 |
